These results are taken from patent US20240148728A1, “NOVEL METHOD TO BLOCK IN[…] DEATH AND IL-1BETA SECRETION CAUSED BY […] UV I[…] GENETIC AND CHEMICAL INHIBITORS OF ZAKA AND THE NLRP1 INFLAMMASOME” (priority 2021, published 2024).

Assay [1] deals with N-TERT cells. The experiment in a line: Secreted IL1β / inflammasome activation in N-TERT cells. The assay is classed as cell-based, human. As for the experimental part: To measure secreted cytokine and chemokine levels a human IL1β enzyme linked immunosorbent assay (ELISA) kit (BD, #557953), human IL-18 ELISA kit (MBL, #7620) or an Immune Monitoring 65-Plex Human ProcartaPlex Panel (EPX650-10065-901) were used according to manufacturer's protocols. Further analysis of Luminex or ELISA profiling of samples was performed using heatmap and PCA analysis on Clustervis (biitdotcsdotutdotee/clustvis/) [Somani et al., Proceeding of SSIC (2019)].
(§1) The following antibodies were used in this study: cleaved PARP1 (Abclonal, #WH162766), Cleaved CASP3 (Abclonal, #WH154646), Full length GSDMD-FL (Abcam, #ab210070), IL1β p17 specific (CST, #83186S), CARD8 (Abcam, CARD8-NT: ab19485, CARD8-CT: ab241186), DPP9 (Abcam, ab226334), c-Myc (Santa Cruz Biotechnology, #sc-40), HA tag (Santa Cruz Biotechnology, #sc-805), GAPDH (Santa Cruz Biotechnology, #sc-47724), ASC (Adipogen, #AL-177), CASP1 (Santa Cruz Biotechnology, #sc-622), 11_1B (R&D systems, #AF-201), FLAG (SigmaAldrich, #F3165), NLRP1 (R&D systems, #AF6788), IL18 (Abcam ab207324), cleaved GSDMD-NT (Asp275) (Cell Signaling Technology, #36425), RPL31 (Abclonal, #WH162766), CASP7 (Abcam, ab255818), CASP8 (Abcam, ab32397), cleaved CASP3 (Cell Signaling Technology, #9664). All horseradish peroxidase (HRP)— conjugated secondary antibodies were purchased from Jackson Immunoresearch (goat anti-mouse IgG: 115-035-166; goat anti-rabbit IgG: 111-035-144; and donkey anti-goat IgG: 705-005-147). Blue-Native PAGE was carried out using the Native-PAGE system (ThermoFisher) with 10-20 μg of total lysate. For SDS-PAGE using whole cell lysates, cells were resuspended in tris-buffered saline 1% NP-40 with protease inhibitors (Thermo Scientific, #78430). Protein concentration was determined using the Bradford assay (Thermo Scientific, #23200) and […] of protein loaded, a part from cleaved GSDMD-NT visualisation where […] of protein was used. All primary antibodies were used at 250 ng/ml. Visualisation of ASC oligomerization was previously described (Robinson et al., 2020). For analysis of IL1β and IL-18 cleavage in the media by immunoblotting, samples were concentrated using filtered centrifugation (Merck, Amicon Ultra, #UFC5003BIK). Protein samples were run using immunoblotting, and then visualized using a ChemiDoc Imaging system (Bio-Rad). PhosTag SDS-PAGE was carried out using homemade 10% SDS-PAGE gel, with addition of Phos-tag Acrylamide (Wako Chemicals, AAL-107) to a final concentration of 30 μM and manganese chloride(II) (Sigma-Aldrich, #63535) to 60 μM.

For assay [2], the system named is primary human keratinocytes. The experiment in a line: Inflammasome-driven pyroptosis in primary human keratinocytes. Particulars: keratinocytes freshly isolated from a healthy donor. The format is cell-based.
Assay [3] concerns 3D human organotypic skin. The experiment in a line: 3D organotypic skin histology and cleaved GSDMD-NT immunostaining. The format is cell-based. As for the experimental part:
Organotypic cultures were generated by adapting a previously described protocol (Arnette et al., 2016). Briefly, 2 ml of collagen I (4 mg/ml; Corning, #354249) mixed with 7.5×10^5 human fibroblasts were allowed to polymerize over 1-m1 acellular collagen I in 6-well culture inserts (Falcon, #353102) placed in 6-well deep well plate (Falcon, #355467). After 24 hours, 1×10^6 primary human keratinocytes were seeded into the inserts and kept submerged in a 3:1 DMEM (Hyclone, #SH30243.01) and F12 (Gibco, #31765035) mixture with 10% FBS (Hyclone, #SV30160.03), 100 U/ml penicillin-streptomycin (Gibco, #15140122), 10 μM Y-27632 (Tocris, #1254), 10 ng/ml EGF (Sigma-Aldrich, #E9644), 1×10^−10 M cholera toxin (Enzo, #BML-G117-001), 0.4 μg/ml hydrocortisone (Sigma-Aldrich, #H0888), 0.0243 mg/ml adenine (Sigma-Aldrich, #A2786), 5 μg/ml insulin (Sigma-Aldrich, #12643), 5 μg/ml transferrin (Sigma-Aldrich, #T2036) and 2×10^−9 M 3,3′,5′-triiodo-L-thyronine (Sigma-Aldrich, #T6397). After another 24 hours, the organotypic cultures were then raised at the air-liquid interface and fed with the submerged media (without Y-27632 and EGF) below the insert to induce epidermal differentiation. The air-lifting medium was replaced every 2 days and treatments began 10-14 days after airlifting. Organotypic cultures were then harvested 24 hours after treatment and formalin fixed for 24 hours. Fixed tissues were then embedded into wax for histological purposes.
For immunohistochemistry staining of cleaved N-terminal GSDMD a previously established protocol with modifications was used [Wang et al., Cell 180:941-955.e20 (2020)]. Briefly, 5 μm formalin fixed and paraffin embedded sections were deparaffinized and rehydrated through a series of alcohol. The sections were then rehydrated in an antigen retrieval buffer (Dako, Tris-EDTA, pH 9). Sections were then blocked in goat serum for 20 mins at RT before primary antibody incubated overnight at 4° C. Immunostaining was visualised using DAB substrate and chromogen detection kit (Dako, #K3468). Sections were then counterstained with Myer's Hematoxylin.

Assay [4] deals with primary bronchial epithelial cells (NHBEs). The experiment in a line: Inflammasome activation and pyroptosis in primary bronchial epithelial cells. The assay is classed as cell-based, human. To be noted: ANS 1 μM.
The subject of assay [5] is NLRP1-NT. The experiment in a line: NLRP1 cleavage / NLRP1-NT level by immunoblot. The format is cell-based, human.
Text: as §1
(In general: Immunoblotting shows a protein as a band on a membrane.)

In assay [6] the test system is NLRP1. The experiment in a line: Ribosome-bound NLRP1, sucrose cushion. The format is cell-based, human. Particulars: N-TERT cell lysates. As for the experimental part:
Crude cellular ribosome fractions were purified by sedimentation through a 30% sucrose cushion or a 10-30% sucrose gradient. Cells were lysed for 20 min in 15 mM Tris, pH 7.5, 0.5% NP-40, 6 mM MgCl2, 300 mM NaCl, with 1× protease inhibitors before centrifugation for 10 min at 12000 g, 4° C. The supernatant was then carefully layered onto a 30% sucrose cushion 30% sucrose in 20 mM Tris, pH 7.5, 2 mM MgCl2, 150 mM KCl and ultra-centrifuged at 34,000 rpm for 24 h using Beckman Coulter Ultracentrifuge, Optima XE. Pellets then washed three times with ice cold PBS and suspended in 100 mM KCl, 5 mM MgCl2, 20 mM HEPES, pH 7.6, 1 mM DTT and 10 mM NH4Cl. Purified ribosome fractions were then analysed by immunoblot.

Assay [7] concerns mouse bone marrow derived macrophages (BMDMs). The experiment in a line: ANS-triggered IL1β secretion and cell death in mouse bone marrow derived macrophages. The format is cell-based.

Molecules are shown by their SMILES.

Take `COc1ccc(C[C@H]2NC[C@H](O)[C@H]2OC(C)=O)cc1` [ANS, Anisomycin]: in assay [1] (ZAKα KO N-TERT cells), the “IL1β secretion and pyroptotic death in ZAKα KO cells” value is reported as “completely resistant”. Moreover, the “IL1β secretion at high concentration versus lower doses” value in assay [1] (ultra-high doses of ANS) is listed as “significant decrease in IL1β secretion as compared to lower doses”. The inflammasome-driven pyroptosis entry in assay [2] is given as “induce inflammasome-driven pyroptosis was also confirmed”. Moreover, the epidermal dyskeratosis result in assay [3] (H&E, 24 hours after treatment) is “caused striking epidermal dyskeratosis”. Besides, the “cleaved GSDMD N-terminal fragment at the cell membrane” value in assay [3] (immunostaining) is recorded as “prominently enriched at the cell membrane”. Also, the “canonical inflammasome activation and pyroptosis” value in assay [4] was “underwent canonical inflammasome activation and pyroptosis”. For the same molecule, the “specific cleavage of overexpressed NLRP1 (smaller bands)” value in assay [5] (ANS-treated cells) was “did not observe any smaller bands”. The “level of intact NLRP1-NT” value in assay [5] (NLRP1 KO keratinocytes rescued with full-length NLRP1) is listed as “caused a significant reduction in the level of intact NLRP1-NT”. Also, in assay [6], the “level of ribosome-bound NLRP1” value is “dramatically increased the level of ribosome-bound NLRP1”. The “IL1β secretion and cell death, wild-type versus Nlrp1a/b KO” value in assay [7] is “did not differ between wild-type and NIrp1a/b KO”.
